Experimental data published in US20160130226A1, “SPIRO-SUBSTITUTED OXINDOLE DERIVATIVES HAVING AMPK ACTIVITY” (BOEHRINGER INGELHEIM INTERNATIONAL GMBH, priority 2013, published 2016).

Key:
AMPK beta 1 = target: T1, AMPK beta 1 (Homo sapiens, UniProt Q13131+Q9Y478); assay: in-cell-ELISA for phospho-ACC: activation of AMPK, beta 1 (HepG2 cells / C2C12 myotubes); assay type: cell-based; conditions: 2 h, percentage activation over vehicle control; for Percentage activation of beta 1 at given concentration / activation at 1 µM: 1 μM
T1 construct: in-cell-ELISA for phospho-ACC (Acetyl-CoA carboxylase 1) in HepG2 cells (liver); endogenous in cells; host or cells: HepG2 (assignment to the beta 1 column inferred)
T1 sequence (Q9Y478 2-270 limits assumed): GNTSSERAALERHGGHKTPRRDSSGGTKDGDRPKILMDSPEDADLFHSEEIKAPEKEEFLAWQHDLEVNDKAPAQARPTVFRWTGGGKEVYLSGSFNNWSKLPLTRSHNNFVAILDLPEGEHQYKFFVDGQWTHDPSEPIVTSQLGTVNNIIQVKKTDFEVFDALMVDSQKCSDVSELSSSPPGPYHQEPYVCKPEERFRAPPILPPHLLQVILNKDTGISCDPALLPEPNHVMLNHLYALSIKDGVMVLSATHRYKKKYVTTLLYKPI
T1 sequence (Q13131 whole entry): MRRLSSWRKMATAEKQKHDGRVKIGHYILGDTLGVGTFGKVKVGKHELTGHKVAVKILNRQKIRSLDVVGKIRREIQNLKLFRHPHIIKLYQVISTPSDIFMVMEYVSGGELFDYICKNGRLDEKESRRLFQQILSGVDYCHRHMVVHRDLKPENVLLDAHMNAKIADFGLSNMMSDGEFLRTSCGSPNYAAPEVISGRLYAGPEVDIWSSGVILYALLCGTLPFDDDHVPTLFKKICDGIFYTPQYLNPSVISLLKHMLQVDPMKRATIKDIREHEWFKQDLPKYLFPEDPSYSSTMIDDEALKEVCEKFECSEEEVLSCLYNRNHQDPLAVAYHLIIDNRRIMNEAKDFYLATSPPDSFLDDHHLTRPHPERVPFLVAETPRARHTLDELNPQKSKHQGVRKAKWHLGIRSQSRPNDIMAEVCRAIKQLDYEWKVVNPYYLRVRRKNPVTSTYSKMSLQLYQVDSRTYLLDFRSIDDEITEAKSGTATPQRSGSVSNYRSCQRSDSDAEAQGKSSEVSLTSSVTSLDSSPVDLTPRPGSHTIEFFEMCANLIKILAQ
T1 sequence (P54619 whole entry partner): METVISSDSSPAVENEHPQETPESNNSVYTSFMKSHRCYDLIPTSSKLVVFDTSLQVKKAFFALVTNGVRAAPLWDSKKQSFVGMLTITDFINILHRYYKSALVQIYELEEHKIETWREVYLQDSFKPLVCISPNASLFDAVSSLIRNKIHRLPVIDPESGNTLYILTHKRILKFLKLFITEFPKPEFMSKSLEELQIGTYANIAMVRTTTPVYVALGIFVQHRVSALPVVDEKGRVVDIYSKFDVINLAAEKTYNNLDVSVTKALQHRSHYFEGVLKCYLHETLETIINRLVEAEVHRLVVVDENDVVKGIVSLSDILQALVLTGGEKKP
Procedure, shortened: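 HepG2 cells and differentiated C2C12 myotubes treated with compound at 1, 3 or 10 μM for 2 h in serum-free DMEM. Phospho-ACC detected by in-cell ELISA after methanol fixation (HRP secondary, A450), normalized to DNA (Hoechst); expressed as % activation over vehicle control.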

AMPK beta 2 = target: T2, AMPK beta 2 (Mus musculus, UniProt Q6PAM0+Q8BRK8); assay: in-cell-ELISA for phospho-ACC: activation of AMPK, beta 2 (HepG2 cells / C2C12 myotubes); assay type: cell-based; conditions: 2 h, percentage activation over vehicle control; for activation at 10 µM / activation at 1 µM: read-out: Percentage activation of beta 2 at given concentration; for Percentage activation of beta 2 at given concentration / activation at 1 µM: 1 μM
T2 construct: fully differentiated myotubes (C2C12 cells) grown in 96 well plate; endogenous in cells; host or cells: C2C12 myotubes (assignment to the beta 2 column inferred)
T2 sequence (Q6PAM0 whole entry): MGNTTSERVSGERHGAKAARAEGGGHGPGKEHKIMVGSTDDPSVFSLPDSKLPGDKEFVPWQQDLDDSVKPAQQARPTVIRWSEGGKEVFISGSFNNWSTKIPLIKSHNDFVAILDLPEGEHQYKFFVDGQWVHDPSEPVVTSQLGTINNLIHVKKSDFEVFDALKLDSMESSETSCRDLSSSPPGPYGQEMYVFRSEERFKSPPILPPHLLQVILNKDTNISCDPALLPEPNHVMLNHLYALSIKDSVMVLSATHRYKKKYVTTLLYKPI
T2 sequence (Q8BRK8 whole entry): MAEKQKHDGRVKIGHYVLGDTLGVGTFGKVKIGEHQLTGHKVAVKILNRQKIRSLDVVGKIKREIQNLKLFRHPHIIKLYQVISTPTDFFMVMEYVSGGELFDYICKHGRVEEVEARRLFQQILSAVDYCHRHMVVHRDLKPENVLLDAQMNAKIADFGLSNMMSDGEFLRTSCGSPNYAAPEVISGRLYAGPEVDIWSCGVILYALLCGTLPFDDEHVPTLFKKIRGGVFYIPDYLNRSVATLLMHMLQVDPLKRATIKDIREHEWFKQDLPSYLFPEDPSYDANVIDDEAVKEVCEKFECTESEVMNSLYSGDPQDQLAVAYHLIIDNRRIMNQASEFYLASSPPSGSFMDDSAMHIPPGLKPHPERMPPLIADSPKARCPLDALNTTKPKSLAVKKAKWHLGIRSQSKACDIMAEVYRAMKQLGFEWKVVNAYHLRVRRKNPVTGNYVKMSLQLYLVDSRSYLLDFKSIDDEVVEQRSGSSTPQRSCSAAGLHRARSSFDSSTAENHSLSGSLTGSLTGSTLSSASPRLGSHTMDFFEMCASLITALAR
T2 sequence (O54950 whole entry partner): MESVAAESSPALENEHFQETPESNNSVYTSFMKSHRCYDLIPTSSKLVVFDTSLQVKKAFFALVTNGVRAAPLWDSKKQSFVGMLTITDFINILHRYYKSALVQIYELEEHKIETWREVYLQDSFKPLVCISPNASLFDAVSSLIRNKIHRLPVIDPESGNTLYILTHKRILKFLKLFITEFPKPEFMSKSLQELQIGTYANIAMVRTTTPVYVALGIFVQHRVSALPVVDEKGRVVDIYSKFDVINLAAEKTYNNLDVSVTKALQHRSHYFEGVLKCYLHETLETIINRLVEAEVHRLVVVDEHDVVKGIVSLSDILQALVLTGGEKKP
Experimental: Activation of AMPK by various compounds were measured using in-cell-ELISA for phospho-ACC (Acetyl-CoA carboxylase 1) in HepG2 cells (liver) and fully differentiated myotubes (C2C12 cells) grown in 96 well plate. Cells were treated with 1 μM, 3 μM or 10 μM of the molecule (Example) for 2 h in serum free DMEM media. After methanol fixation, cells were blocked with BSA followed by addition of anti-phospho ACC antibody (Cell Signaling) and HRP conjugated secondary antibody. Absorbance values taken at 450 nm were normalized with total DNA (Hoechest stain). Results were expressed as percentage activation over vehicle control.
Percentage activation at compound (Example) concentration of 1, 3 or 10 μM for compounds according to the invention are shown in the following table. The number of the compound corresponds to the number of the Example (Ex) in the experimental section.

[1] = read-out: Percentage activation of beta 1 at given concentration

activation at 10 µM (AMPK beta 2) [%] | Percentage activation of beta 1 at given concentration (AMPK beta 1) [% at 1 μM] | Percentage activation of beta 2 at given concentration (AMPK beta 2) [% at 1 μM] | activation at 1 µM (AMPK beta 1; [1]) [%] | activation at 1 µM (AMPK beta 2) [%] | SMILES | further results
 | 97 | 214 |  |  | Cc1ccc(C2CC23C(=O)Nc2cc(Cl)c(-c4ccc(-c5ccc(-n6ccnn6)cc5)cc4)cc23)cc1C(=O)O (stereo not drawn) [Example 135] | 
 | 123 | 47 |  |  | Cc1ccc(C2CC23C(=O)Nc2cc(Cl)c(-c4ccc(-c5ccc(-n6ccnn6)cc5)cc4)cc23)cc1C(=O)O (stereo not drawn) [Example 134] | 
 |  |  | 26 | 62 | Cc1ccc(C2CC23C(=O)Nc2c3cc(-c3ccc(-c4ccc(-n5cncn5)cc4)cc3)c(Cl)c2Cl)cc1C(=O)O (stereo not drawn) [Example 149] | 

Continued, compound first:

SMILES | activation at 10 µM (AMPK beta 2) [%] | Percentage activation of beta 1 at given concentration (AMPK beta 1) [% at 1 μM] | Percentage activation of beta 2 at given concentration (AMPK beta 2) [% at 1 μM] | activation at 1 µM (AMPK beta 1; [1]) [%] | activation at 1 µM (AMPK beta 2) [%] | further results
CN1C(=O)C2(CC2c2ccc(CC(=O)O)cc2)c2cc(-c3ccc(-c4ccncc4)cc3)c(Cl)cc21 (stereo not drawn) [Example 102] | 115 |  |  |  |  | activation at 3 µM (AMPK beta 1; 3 μM, read-out: Percentage activation of beta 1 at given concentration): 33%
O=C(O)c1ccc(C2CC23C(=O)Nc2cc(Cl)c(-c4ccc(-c5ccncc5)cc4)cc23)cc1 (stereo not drawn) [Example 95] | 34 |  |  |  |  | activation at 10 µM (AMPK beta 1; 10 μM, read-out: Percentage activation of beta 1 at given concentration): 94%
COc1ccc(C2CC23C(=O)Nc2cc(Cl)c(-c4ccc(-c5ccc(-n6cncn6)cc5)cc4)cc23)cc1CC(=O)O (stereo not drawn) [Example 123] |  |  |  | 66 | 85 | 
